The source of these data is CN105311047A, “一种替米考星药物包合物及其制备和应用” (Luoyang Huizhong Animal Medicine Co Ltd, priority 2014, dated 2016).

This data set is described as follows: In vitro sustained-release test (dialysis bag, phosphate buffer, UV 287 nm). To be noted: after 24 h (24h以后); phosphate buffer pH 6.86, 37±0.5 ℃, 100 r/min. The data set is classed as physicochemical.

`CC[C@H]1OC(=O)C[C@@H](O)[C@H](C)[C@@H](O[C@@H]2O[C@H](C)[C@@H](O)[C@H](N(C)C)[C@H]2O)[C@@H](CCN2C[C@H](C)C[C@H](C)C2)C[C@@H](C)C(=O)/C=C/C(C)=C/[C@@H]1CO[C@@H]1O[C@H](C)[C@@H](O)[C@@H](OC)[C@H]1OC` [替米考星原粉, 替米考星] returned a release rate of over 95%.
